Reference: US6914064B2, “1,4-Disubstituted piperazine derivatives useful as uro-selective α1-adrenoceptor blockers” (Ranbaxy Laboratories Limited, priority 2000, dated 2005)
pKi: −log10 of the molar value. Where two headings read alike, the source gives them in different places.

Columns and labels:
α1A adrenoceptor = molecular target: T1, α1A adrenoceptor (Rattus norvegicus, UniProt P43140); assay: Receptor binding assay, displacement of [3H]prazosin, rat submaxillary membranes; conditions: for Selectivity α1B/α1A: ratio of Ki α1B (rat liver) / α1A (rat submaxillary)
T1 construct: from tissue; host or cells: rat submaxillary gland membranes
T1 sequence (P43140 1-466): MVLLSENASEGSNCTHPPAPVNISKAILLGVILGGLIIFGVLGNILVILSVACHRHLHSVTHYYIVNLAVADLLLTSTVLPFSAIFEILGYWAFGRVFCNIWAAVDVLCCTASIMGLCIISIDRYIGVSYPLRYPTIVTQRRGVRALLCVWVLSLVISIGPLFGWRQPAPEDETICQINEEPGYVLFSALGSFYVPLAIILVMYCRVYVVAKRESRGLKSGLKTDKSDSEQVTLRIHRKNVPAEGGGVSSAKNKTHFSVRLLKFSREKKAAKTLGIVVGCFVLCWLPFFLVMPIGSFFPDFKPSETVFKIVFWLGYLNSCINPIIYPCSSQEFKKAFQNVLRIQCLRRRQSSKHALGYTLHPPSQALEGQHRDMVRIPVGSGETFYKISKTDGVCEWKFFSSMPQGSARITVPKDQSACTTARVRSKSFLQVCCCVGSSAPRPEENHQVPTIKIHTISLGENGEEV
Experimental: Receptor binding assays were performed using native α-adrenoceptors.
(§1) Submaxillary glands were isolated immediately after sacrifice. The liver was perfused with buffer (Tris HCl 50 mM, NaCl 100 mM, 10 mM EDTA pH 7.4). The tissues were homogenised in 10 volumes of buffer (Tris HCl 50 mM, NaCl 100 mM, EDTA 10 mM, pH 7.4). The homogenate was filtered through two layers of wet gauze and filtrate was centrifuged at 500 g for 10 min. The supernatant was subsequently centrifuged at 40,000 g for 45 min. The pellet thus obtained was resuspended in the same volume of assay buffer (Tris HCl 50 mM, EDTA 5 mM, pH 7.4) and were stored at −70° C. until the time of assay.
(§2) The membrane homogenates (150-250 μg protein) were incubated in 250 μl of assay buffer (Tris HCl 50 mM, EDTA 5 mM, pH 7.4) at 24-25° C. for 1 h. Non-specific binding was determined in the presence of 300 nM prazosin. The incubation was terminated by vacuum filtration over GF/B fibre filters. The filters were then washed with ice cold 50 mM Tris HCl buffer (pH 7.4). The filtermats were dried and bound radioactivity retained on filters was counted.The IC50 & Kd were estimated by using the non-linear curve fitting program using G Pad Prism software.

[1] = molecular target: T2, α1B adrenoceptor (spleen) (Rattus norvegicus, UniProt P15823); assay: In vitro functional study, antagonism of phenylepinephrine-induced contraction of spleen; type: biochemical; conditions: tested compound at 0.1, 1 and 10 mM, read-out: α Adrenoceptor Subtype (pKB) α1B (converted)
T2 construct: Isolated tissues were mounted in organ bath containing Krebs Henseleit buffer; from tissue; host or cells: isolated spleen of male wistar rats
T2 sequence (P15823 1-515): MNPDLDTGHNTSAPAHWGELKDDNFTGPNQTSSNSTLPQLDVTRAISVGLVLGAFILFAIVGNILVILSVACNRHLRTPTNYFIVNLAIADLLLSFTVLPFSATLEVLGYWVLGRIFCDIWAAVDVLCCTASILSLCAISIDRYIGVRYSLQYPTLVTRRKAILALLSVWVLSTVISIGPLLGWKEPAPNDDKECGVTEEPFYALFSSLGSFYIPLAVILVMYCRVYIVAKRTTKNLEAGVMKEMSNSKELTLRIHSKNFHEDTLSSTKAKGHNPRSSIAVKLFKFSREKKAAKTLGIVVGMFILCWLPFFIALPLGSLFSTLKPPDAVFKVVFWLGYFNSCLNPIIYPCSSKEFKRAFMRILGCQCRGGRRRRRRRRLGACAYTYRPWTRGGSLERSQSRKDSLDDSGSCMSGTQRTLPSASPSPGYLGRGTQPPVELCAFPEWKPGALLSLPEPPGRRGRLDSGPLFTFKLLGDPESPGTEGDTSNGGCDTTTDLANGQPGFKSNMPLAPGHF
Source text: (§3) In order to study selectivity of action of these compounds towards different α-adrenoceptor subtypes, the ability of these compounds to antagonise α1-adrenoceptor agonist induced contractile response on aorta (α1Dprostate (α1A and spleen (α1B was studied. Aorta and spleen tissues were isolated from urethane anaesthetised (1.5 gm/kg) male wistar rats. Isolated tissues were mounted in organ bath containing Krebs Henseleit buffer of following composition (mM): NaCl 118; KCl 4.7; CaCl2 2.5; MgSO4. 7H2O 1.2; NaHCO3 25; KH2PO41.2; glucose 11.5. Buffer was maintained at 37° C. and aereated with a mixture of 95% O2 and 5% CO2. A resting tension of 2 g (aorta) or 1 g (spleen and prostate)was applied to tissues. Contractile response was monitored using a force displacement transducer and recorded on chart recorders. Tissues were allowed to equilibrate for 2 hours. At the end of equilibration period, concentration response curves to norepinephrine (aorta) and phenylepinephrine (spleen and prostate) were obtained in absence and presence of tested compound (at concentration of 0.1,1 and 10 mM). Antagonist affinity was calculated and expressed as pKB vales in Table II.

[2] = molecular target: T3, α1A adrenoceptor (prostate) (Rattus norvegicus, UniProt P43140); assay: In vitro functional study, antagonism of phenylepinephrine-induced contraction of prostate; type: biochemical; conditions: for Selectivity α1A/α1B / Selectivity α1A/α1D: functional assays, from pKB values; for Kb: prostate, phenylepinephrine, tested compound at 0.1, 1 and 10 mM, read-out: α Adrenoceptor Subtype (pKB) α1A (converted)
T3 construct: from tissue; host or cells: isolated prostate tissue
T3 sequence (P43140 1-466): T1 sequence (P43140 1-466)
Source text: as §3

α1B adrenoceptor = molecular target: T4, α1B adrenoceptor (Rattus norvegicus, UniProt P15823); assay: Receptor binding assay, displacement of [3H]prazosin, rat liver membranes
T4 construct: from tissue; host or cells: rat liver membranes
T4 sequence (P15823 1-515): T2 sequence (P15823 1-515)
Experimental: Receptor binding assays were performed using native α-adrenoceptors. The affinity of different compounds for α1A and α1B adrenoceptor subtypes was evaluated by studying their ability to displace specific [^3H]prazosin binding from the membranes of rat submaxillary and liver respectively (Michel et al, Br J Pharmacol, 98, 883-889 (1989)). The binding assays were performed according to U'Prichard et al. (Eur J Pharmacol, 50:87-89 (1978)) with minor modifications.
as §1
as §2, with “software. The value of inhibition constant Ki was calculated from competitive binding studies by using Cheng & Prusoff equation (Cheng & Prusoff, Biochem Pharmacol, 1973,22: 3099-3108), Ki=IC50/(1+L/Kd) where L is the concentration of [^3H]prazosin used in the particular experiment (Table I).” for “software.”

α1D adrenoceptor (aorta) = molecular target: T5, α1D adrenoceptor (aorta) (Rattus norvegicus, UniProt P23944); assay: In vitro functional study, antagonism of norepinephrine-induced contraction of aorta; type: biochemical; conditions: tested compound at 0.1, 1 and 10 mM, read-out: α Adrenoceptor Subtype (pKB) α1D (converted)
T5 construct: Isolated tissues were mounted in organ bath containing Krebs Henseleit buffer; from tissue; host or cells: isolated aorta of male wistar rats
T5 sequence (P23944 1-561): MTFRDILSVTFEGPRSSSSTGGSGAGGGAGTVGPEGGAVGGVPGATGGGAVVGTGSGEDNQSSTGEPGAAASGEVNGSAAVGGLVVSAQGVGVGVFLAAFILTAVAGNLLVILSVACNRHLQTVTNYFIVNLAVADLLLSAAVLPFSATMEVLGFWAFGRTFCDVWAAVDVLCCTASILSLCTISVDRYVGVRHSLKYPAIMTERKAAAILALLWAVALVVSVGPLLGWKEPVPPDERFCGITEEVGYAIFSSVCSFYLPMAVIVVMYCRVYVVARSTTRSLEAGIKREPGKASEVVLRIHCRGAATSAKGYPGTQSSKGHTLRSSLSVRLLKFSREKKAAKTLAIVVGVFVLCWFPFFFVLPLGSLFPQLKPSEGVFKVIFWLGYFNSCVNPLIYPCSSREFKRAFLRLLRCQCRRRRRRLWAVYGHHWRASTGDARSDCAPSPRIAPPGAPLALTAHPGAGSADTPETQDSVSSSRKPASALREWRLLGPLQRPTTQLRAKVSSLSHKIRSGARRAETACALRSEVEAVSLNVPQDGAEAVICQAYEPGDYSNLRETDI
Source text: as §3

[3] = [3H]prazosin displacement, rat submaxillary membranes, read-out: α1A (Rat submaxillary) Ki
[4] = [3H]prazosin displacement, rat liver membranes, read-out: α1B (Rat liver) Ki

Structure (SMILES) | pKi (α1A adrenoceptor; [3]) | Selectivity α1B/α1A (α1A adrenoceptor) | Kb [1] | melting point | Selectivity α1A/α1B [2] | Kb [2] | pKi (α1B adrenoceptor; [4]) | Kb (α1D adrenoceptor (aorta)) | Selectivity α1A/α1D [2] | pKi (α1A adrenoceptor) | pKi (α1B adrenoceptor)
CCCCCCOc1ccccc1N1CCN(CCCN2C(=O)C3CC=CCC3C2=O)CC1.Cl (centres unmarked) [Compound 25, 2-[3-{4-(2-n-Hexyloxyphenyl)piperazin-1-yl}propyl]-3a,4,7,7a-tetrahydro-1H-isoindole-1,3(2H)-dione hydrochloride] | 8.48 | >151 | 67.6 nM | 165 to 166 °C | 54 | 1.26 nM | < 6.30 | 1 nM | – | – | –
CCOc1ccccc1N1CCN(C(C)CCN2C(=O)C3CC=CCC3C2=O)CC1.Cl (centres unmarked) [Compound 31, 2-[3-{4-(2-Ethoxyphenyl)piperazin-1-yl}-3-methylpropyl]-3a,4,7,7a-tetrahydro-1H-isoindole-1,3(2H)-dione hydrochloride] | 8.68 | 110 | – | 246 to 248 °C | – | 5.01 nM | 6.63 | 16.2 nM | 3.24 | – | –
Cl.O=C1C2CC=CCC2C(=O)N1CCCN1CCN(c2cccc(C(F)(F)F)c2)CC1 (centres unmarked) [Compound 05, 2-[3-{4-(3-Trifluoromethylphenyl)piperazin-1-yl}propyl]-3a,4,7,7a-tetrahydro-1H-isoindole-1,3(2H)-dione hydrochloride] | – | 2 | – | 215 to 217 °C | – | – | – | – | – | 6.59 | < 6.30
COc1ccccc1N1CCN(C(C)CCN2C(=O)C3CC=CCC3C2=O)CC1.Cl (centres unmarked) [Compound 29, 2-[3-{4-(2-Methoxyphenyl)piperazin-1-yl}-3-methylpropyl]-3a,4,7,7a-tetrahydro-1H-isoindole-1,3(2H)-dione hydrochloride] | 8.46 | 205 | 1580 nM | 219 to 220 °C | 18 | 87.1 nM | 6.15 | 33.9 nM | – | – | –
Cl.O=C1C2CC=CCC2C(=O)N1CCCN1CCN(Cc2ccccc2)CC1 (centres unmarked) [Compound 14, 2-[3-{4-(Benzyl)piperazin-1-yl}propyl]-3a,4,7,7a-tetrahydro-1H-isoindole-1,3(2H)-dione hydrochloride] | < 6.30 | 1 | – | 275 to 278 °C | – | – | < 6.30 | – | – | – | –
Cc1ccc(Cl)cc1N1CCN(CCCN2C(=O)C3CC=CCC3C2=O)CC1.Cl (centres unmarked) [Compound 12, 2-[3-{4-(2-Methyl-5-chlorophenyl)piperazin-1-yl}propyl]-3a,4,7,7a-tetrahydro-1H-isoindole-1,3(2H)-dione hydrochloride] | 8.06 | 5.9 | – | 231 to 232 °C | – | – | 7.29 | – | – | – | –
CCc1ccccc1N1CCN(CCCN2C(=O)C3CC=CCC3C2=O)CC1.Cl (centres unmarked) [Compound 09, 2-[3-{4-(2-Ethylphenyl)piperazin-1-yl}propyl]-3a,4,7,7a-tetrahydro-1H-isoindole-1,3(2H)-dione hydrochloride] | 9.52 | 207 | 15.8 nM | 232.5 to 233.5 °C | 23 | 0.676 nM | 7.21 | 2.51 nM | 3.6 | – | –
Cc1ccc(N2CCN(CCCN3C(=O)C4CC=CCC4C3=O)CC2)cc1Cl.Cl (centres unmarked) [Compound 17, 2-[3-{4-(3-Chloro-4-methylphenyl)piperazin-1-yl}propyl]-3a,4,7,7a-tetrahydro-1H-isoindole-1,3(2H)-dione hydrochloride] | 7.32 | 0.78 | – | 248 to 249 °C | – | – | 7.43 | – | – | – | –
Cl.O=C1C2CC=CCC2C(=O)N1CCCN1CCN(c2ccc(F)cc2)CC1 (centres unmarked) [Compound 04, 2-[3-{4-(4-Fluorophenyl)piperazin-1-yl}propyl]-3a,4,7,7a-tetrahydro-1H-isoindole-1,3(2H)-dione hydrochloride] | 7.10 | 4.5 | – | 228 to 230 °C | – | – | 6.44 | – | – | – | –
Cc1cccc(C)c1N1CCN(CCCN2C(=O)C3CC=CCC3C2=O)CC1.Cl (centres unmarked) [Compound 22, 2-[3-{4-(2,6-Dimethylphenyl)piperazin-1-yl}propyl]-3a,4,7,7a-tetrahydro-1H-isoindole-1,3(2H)-dione hydrochloride] | 6.68 | 2.4 | – | 223 to 224 °C | – | – | < 6.30 | – | – | – | –
